Data from patent publication US5393875A, “Amino acid derivatives having renin inhibiting activity” (Hoffmann-La Roche Inc., priority 1991, dated 1995).

Tests used:
renin in human plasma = target: T1, renin in human plasma (Homo sapiens, UniProt P00797); test: Test B: in vitro test with human plasma; assay type: biochemical; conditions: pH 6, 3 hours at 37° C., angiotensin I by RIA
T1 construct: The test solution comprises (1) 225 μl of plasma; from tissue; host or cells: human plasma
T1 sequence (P00797 67-406): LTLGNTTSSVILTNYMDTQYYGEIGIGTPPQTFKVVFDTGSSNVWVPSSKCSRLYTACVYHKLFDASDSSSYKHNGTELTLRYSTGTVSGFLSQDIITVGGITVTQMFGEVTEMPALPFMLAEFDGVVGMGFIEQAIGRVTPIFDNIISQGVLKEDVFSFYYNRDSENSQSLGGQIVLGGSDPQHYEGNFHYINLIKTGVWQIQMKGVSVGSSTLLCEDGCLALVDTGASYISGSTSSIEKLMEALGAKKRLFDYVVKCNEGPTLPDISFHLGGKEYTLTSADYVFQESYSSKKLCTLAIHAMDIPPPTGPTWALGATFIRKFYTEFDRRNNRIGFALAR
Procedure: B. In vitro test with human plasma
The test solution comprises (1) 225 μl of plasma, (2) 10 μl of 8-hydroxyquinoline sulphate in water, (3) 12 μl of sodium phosphate buffer (0.1M), pH 7.4, and […] of different concentrations of renin inhibitor in dimethyl sulphoxide. Tho resulting pH value (pH 6) of tho test solution is stable for the duration of the subsequent incubation. The test tubes are then incubated at 37° C. for 3 hours. The enzyme activity is expressed by determining the angiotensin I produced, which is determined using a comercially available radioimmunoassay kit (Clinical Assays, Cambridge, Mass.).
(§1) The following controls are carried out:
MaxP: Maximal production (maximal enzyme activity) in the absence of a renin inhibitor.
MinP: Minimal production (enzyme activity blank) in the presence of a supramaximal concentration of a renin inhibitor.
The MinP is subtracted from the respective angiotensin production in each experiment. These values are converted into percentage inhibition by comparison with the maximal enzyme activity MaxP-MinP. The degree of inhibition is expressed by the IC50 value, i.e. the concentration of inhibitor which reduces the accumulation of angiotensin I by 50%.

human renin = target: T2, human renin (Homo sapiens, UniProt P00797); test: Test A: in vitro test with pure human renin; assay type: biochemical; conditions: human tetradecapeptide substrate, pH 7.4, 3 hours at 37° C., angiotensin I by RIA
T2 sequence (P00797 67-406): T1 sequence (P00797 67-406)
Procedure: A. In vitro test with pure human renin
The test is carried out in Eppendorf test tubes. The incubation mixture consists of (1) 100 μl of human renin in buffer A (0.1M sodium phosphate solution, pH 7.4, containing 0.1% bovine serum albumin, 0.1% sodium azide and 1 mM ethylenediaminetetraacetic acid), sufficient for a renin activity of 2-3 ng of angiotensin I/ml/hr; (2) 145 μl of buffer A: (3) 30 μl of 10 μM human tetradecapeptide renin substrate (hTD) in 10 mM hydrochloric acid: (4) 15 μl of dimethyl sulphoxide with or without inhibitor and (5) 10 μl of a 0.03 molar solution of hydroxyquinoline sulphate in water.
The samples are incubated for three hours at 37° C. and, respectively, 4° C. in triplicate. 2×100 μl samples per experimental test tube are used in order to measure the production of angiotensin I via RIA (standard radioimmunoassay; clinical assay solid phase kit). Cross reactivities of the antibody used in the RIA are: angiotensin I 100%; angiotensin II 0.0013%; hTD (angiotensin I-Val-Ile-His-Ser-OH 0.09%. The production of angiotensin I is determined by the difference between the experiment at 37° C. and that at 4° C.
as §1
(a) Incubation of hTD samples without renin and without inhibitor at 37° C. and 4° C. The difference between these two values gives the base value of the angiotensin I production.
(b) Incubation of hTD samples with renin, but without inhibitor at 37° C. and 4° C. The difference between these values gives the maximal value of angiotensin I production.
In each sample the base value of the angiotensin I production is subtracted from the angiotensin I production which is determined. The difference between the maximal value and the base value gives the value of the maximal substrate hydrolysis (=100% ) by renin.
The results are given as IC50 values which denote that concentration of the inhibitor at which the enzymatic activity is inhibited by 50%. The IC50 values are determined from a linear regression curve from a logit-log plot.

IC50 (renin in human plasma)	IC50 (human renin)	SMILES
140 pM	61 pM	COC(=O)[C@H](NC(=O)OC(C)(C)C)C(C)(C)S(=O)(=O)CC(Cc1ccccc1)C(=O)N[C@@H](Cc1c[nH]cn1)C(=O)N[C@@H](CC1CCCCC1)[C@@H](O)[C@@H](O)C1CC1 (single isomer, unassigned) [C, tert-Butyl [(S)-2-[[(S or R)-2-[[(S)-1-[[(1S,2R,3S)-1-(cyclohexylmethyl)-3-cyclopropyl-2,3-dihydroxypropyl]carbamoyl]-2-imidazol-4-ylethyl]carbamoyl]-3-phenylpropyl]sulfonyl]-1-(methoxycarbonyl)-2-methylpropyl]carbamate]
< 100 pM	200 pM	COCC(=O)OCC(C)(C)S(=O)(=O)CC(Cc1ccccc1)C(=O)N[C@@H](Cc1c[nH]cn1)C(=O)N[C@@H](CC1CCCCC1)[C@@H](O)[C@@H](O)C1CC1 (single isomer, unassigned) [D, 2-[[(S or R)-2-[[(S)-1-[[(1S,2R,3S)-1-(cyclohexylmethyl)-3-cyclopropyl-2,3-dihydroxypropyl]carbamoyl]-2-imidazol-4-ylethyl]carbamoyl]-3-phenylpropyl]sulfonyl]-2-methylpropyl methoxyacetate]
110 pM	300 pM	CC(C)(C(=O)N[C@H]1C(O)O[C@H](CO)[C@@H](O)[C@@H]1O)S(=O)(=O)C[C@@H](Cc1ccccc1)C(=O)N[C@@H](Cc1c[nH]cn1)C(=O)N[C@@H](CC1CCCCC1)[C@@H](O)[C@@H](O)C1CC1 (stereo partly drawn) [B, 2-[2-[[(S)-2-[[(S)-1-[[(1S,2R,3S)-1-(Cyclohexylmethyl)-3-cyclopropyl-2,3-dihydroxypropyl]carbamoyl]-2-imidazol-4-ylethyl]carbamoyl]-3-phenylpropyl]sulfonyl]-2-methylpropionamido]-2-deoxy-D-glucopyranose]

SMILES	IC50 (renin in human plasma)	IC50 (human renin)
CC(C)(C(=O)N1CCOCC1)S(=O)(=O)C[C@@H](Cc1ccccc1)C(=O)N[C@@H](Cc1c[nH]cn1)C(=O)N[C@@H](CC1CCCCC1)[C@@H](O)[C@@H](O)C1CC1 [A, (S)-N-[(1S,2R,3S)-1-(Cyclohexylmethyl)-3-cyclopropyl-2,3-dihydroxypropyl]-α-[(S)-α-[[[1-(morpholinocarbonyl)-1-methylethyl]sulfonyl]methyl]hydrocinnamamido]imadazole-4-propionamide]	100 pM	30 pM
